# Experiments:
# c-Src kinase domain [1] = target: T1, c-Src kinase domain (Homo sapiens, UniProt P12931); test: pTyr-Var library bacterial peptide display kinase screen (enrichment scores);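 as to screen: log2 fold change in enrichment of variant over reference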; format: biochemical; conditions: for Screen: sheet "Src"; for c-Src mean of log2(enrichment): mean of log2 of enrichment over R1-R4; for c-Src enrich. R1 / c-Src enrich. R3 / c-Src enrich. R4: pTyr-Var library, enrichment score; for c-Src enrich. R1: replicate 1; for c-Src enrich. R3: replicate 3; for c-Src enrich. R4: replicate 4
# c-Abl kinase domain [2] = target: T2, c-Abl kinase domain (Mus musculus, UniProt P00520); test: as above; format: biochemical; conditions: for c-Abl mean of log2(enrichment): mean of log2 of enrichment over R1-R4; for c-Abl enrich. R1 / c-Abl enrich. R3 / c-Abl enrich. R4: enrichment score; for c-Abl enrich. R1: replicate 1; for c-Abl enrich. R3: replicate 3; for c-Abl enrich. R4: replicate 4
# T2 sequence (P00520 242-493 limits assumed): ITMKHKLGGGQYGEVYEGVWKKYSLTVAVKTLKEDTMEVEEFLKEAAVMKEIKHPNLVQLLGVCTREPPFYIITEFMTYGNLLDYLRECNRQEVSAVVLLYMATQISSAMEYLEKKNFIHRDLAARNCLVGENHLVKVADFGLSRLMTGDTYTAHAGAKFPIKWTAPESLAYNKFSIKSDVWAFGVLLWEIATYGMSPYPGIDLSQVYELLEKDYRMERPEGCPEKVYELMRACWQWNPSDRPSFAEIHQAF
# Fer kinase domain = test: as above; format: biochemical, mouse; conditions: for Screen: sheet "Fer"; for Fer mean of log2(enrichment): mean of log2 of enrichment over R1-R4; for Fer enrich. R1 / Fer enrich. R3 / Fer enrich. R4: pTyr-Var library, enrichment score; for Fer enrich. R1: replicate 1; for Fer enrich. R3: replicate 3; for Fer enrich. R4: replicate 4;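 as to screen: log2 fold change in enrichment of variant over reference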
# EPHB1 kinase domain = test: as above; format: biochemical, human; conditions: for mean of log2(reference): mean of log2 enrichment of reference peptide, n = 4; for Screen: sheet EPHB1, effect of the variant peptide relative to its reference peptide in the pTyr-Var library screen (enrichment scores)
# EPHB2 kinase domain = test: as above; format: biochemical, human; conditions: for Screen: sheet EPHB2; for mean of log2(reference): mean of log2 enrichment of reference peptide, n = 4;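 as to screen: log2 fold change in enrichment of variant over reference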
# c-Src kinase domain [3] = target: T1, c-Src kinase domain; test: ADP-Quest continuous fluorimetric kinase assay (Michaelis-Menten parameters and initial rates); format: biochemical; conditions: for Km / kcat: ADP-Quest assay, c-Src kinase domain 10 nM, 100 μM ATP, 37 °C, three to five replicates, error = standard error of global Michaelis-Menten fit
# Description: (§1) A fluorescence-based assay from Eurofins (ADP Quest) was used to measure the Michaelis-Menten kinetic parameters for phosphorylation of the consensus peptides by purified tyrosine kinase domains. In this assay, ADP production as a result of kinase activity is coupled to the production of resorufin, a fluorophore that emits signal at 590 nm. For all experiments, the assay reactions were set up as described in the provided assay kit protocol, in a 384 well plate format. The peptide solutions were serially diluted in 100 mM Tris, pH 8.0, and the kinases were diluted to 50 nM in buffer (10 mM HEPES, 100 mM NaCl, 1 mM TCEP, 5 mM MgCl2, 10% (v/v) glycerol). The final reaction mixtures contained 10 nM of kinase with 100 μM of ATP. Reactions were initiated with the addition of 1 mM ATP into a 50 μL reaction mixture for a final concentration of 100 μM ATP. Phosphorylation reaction progress was monitored by measuring fluorescence at excitation 530 nm and emission 590 nm every 2 min at 37 °C on a plate reader (BioTek Synergy Neo 2). The fluorescence units (RFU) were converted to μM ADP by comparison to a standard curve, and the initial rates were extracted from the linear regime of the reaction progress curves. Initial rates were also measured for samples containing each kinase but lacking a peptide substrate, to account for background ATP hydrolysis. This background rate was subtracted from the rates measured in the presence of peptide. The subtracted rates were plotted as a function of substrate concentration and fit to the Michaelis-Menten equation to extract kcat and KM values.
# c-Abl kinase domain [4] = target: T2, c-Abl kinase domain; test: as above; format: biochemical; conditions: peptide 100 μM, kinase 10–50 nM; Figure 2C
# Description: as §1
# c-Src kinase domain [5] = target: T1, c-Src kinase domain; test: RP-HPLC assay to measure peptide phosphorylation kinetics; format: biochemical; conditions: purified peptide substrate
# Fyn kinase domain = test: pTyr-Var library bacterial peptide display kinase screen (enrichment scores); format: biochemical, human; conditions: for Fyn mean of log2(enrichment): mean of log2 of enrichment over R1-R4; for Fyn enrich. R1 / Fyn enrich. R3 / Fyn enrich. R4: pTyr-Var library, enrichment score; for Fyn enrich. R1: replicate 1; for Fyn enrich. R3: replicate 3; for Fyn enrich. R4: replicate 4
# Hck kinase domain = test: as above; format: biochemical, human; conditions: for Hck mean of log2(enrichment): mean of log2(variant) / mean of log2(reference), R1-R4; for Hck enrich. R1 / Hck enrich. R3 / Hck enrich. R4: pTyr-Var library, enrichment score; for Hck enrich. R1: replicate 1; for Hck enrich. R3: replicate 3; for Hck enrich. R4: replicate 4
# Jak2 = test: as above; format: biochemical, human; conditions: for Jak2 mean of log2(enrichment): mean of log2 of enrichment over R1-R3; for Jak2 enrich. R1 / Jak2 enrich. R3: pTyr-Var library, enrichment score; for Jak2 enrich. R1: replicate 1; for Jak2 enrich. R3: replicate 3
# AncSZ kinase domain = test: as above; format: biochemical; conditions: for AncSZ mean of log2(enrichment): mean of log2 of enrichment over R1-R5; for AncSZ enrich. R1 / AncSZ enrich. R3 / AncSZ enrich. R4 / AncSZ enrich. R5: pTyr-Var library, enrichment score; for AncSZ enrich. R1: replicate 1; for AncSZ enrich. R3: replicate 3; for AncSZ enrich. R4: replicate 4; for AncSZ enrich. R5: replicate 5
# Fes = test: as above; format: biochemical; conditions: mean of log2 of enrichment over R1-R6
# FGFR1 kinase domain = test: as above; format: biochemical, human; conditions: n = 5
# FGFR3 kinase domain = test: as above; format: biochemical, human; conditions: n = 5
# MERTK kinase domain = test: as above; format: biochemical, human; conditions: for mean of log2(reference): mean of log2 enrichment of reference peptide, n = 4
# c-Src SH2 domain = c-Src SH2 domain (Homo sapiens, UniProt P12931); test: pTyr-Var library SH2 domain screen with SH2-dynabeads (enrichment scores); conditions: mean of log2 enrichment of reference peptide, R1-R3; sheet c-Src
# SHP2 C-SH2 domain = test: as above; conditions: R1-R3
# Grb2 SH2 domain = test: as above; conditions: R1-R3
# [6] = variant peptide versus its reference peptide in the pTyr-Var library screen
# [7] = variant peptide relative to its reference peptide, pTyr-Var library screen enrichment
# [8] = effect of the variant peptide relative to its reference peptide in the pTyr-Var library screen
# [9] = value of the variant peptide against its reference peptide in the pTyr-Var library screen with Fer
# [10] = effect of variant peptide relative to its reference peptide in the pTyr-Var library screen (enrichment scores)
substance,measurement,setting,value
ACCLLYCGDVV [TUBA4A_Y319_R320C],Screen,c-Src kinase domain [1]; [6],-0.4326
same,Screen,"c-Abl kinase domain [2]; sheet ""Abl"", effect of variant peptide relative to its reference peptide in pTyr-Var library screen (enrichment)",-0.5266
same,Screen,Fer kinase domain; [7],2.253
same,"Screen (variant relative to reference peptide, measured in the pTyr-Var library screen)","EPHB1 kinase domain; sheet ""EPHB1"", variant seq vs reference seq, bacterial peptide display enrichment",4.284
same,Screen,EPHB2 kinase domain; effect of the variant relative to its reference peptide in the pTyr-Var library screen,3.709
"Ac-GCDECIYGMFPFRRRG-NH2 [Src Consensus (P-5C, D+1 G), Src Consensus-related peptide with +1 Gly]",Km,c-Src kinase domain [3],97 ± 10 µM
same,kcat,c-Src kinase domain [3],4.4±0.2 s^–1
"Ac-GPDECIYDMFPFKKKG-NH2 [Src Consensus, c-Src consensus substrate peptide from X5-Y-X5 screen]",phosphorylation of consensus peptide by c-Abl (initial rate relative to cognate consensus),c-Abl kinase domain [4],efficiently phosphorylated
same,Km,c-Src kinase domain [3],196 ± 38 µM
same,kcat,c-Src kinase domain [3],4.9±0.4 s^–1
same,phosphorylation of consensus peptide by c-Src (initial rate relative to cognate consensus),"c-Src kinase domain [3]; high concentration: peptide 100 μM, kinase 10–50 nM, Figure 2C",selective
Ac-IGEGTYRTVFK-NH2 [CDK5-Y15-G16R],Phosphorylation Rate,c-Src kinase domain [5],0.219 s⁻¹
Ac-SGDITYGQFAQ-NH2 [PLCG1_Y210],Phosphorylation Rate,c-Src kinase domain [5],2.121 s⁻¹
GMAHNYRNSSQ [AASS_Y188],c-Src mean of log2(enrichment),c-Src kinase domain [1],-1.404
same,c-Src enrich. R1,c-Src kinase domain [1],0.429
same,c-Src enrich. R3,c-Src kinase domain [1],0.2705
same,c-Src enrich. R4,c-Src kinase domain [1],0.4776
same,Fyn mean of log2(enrichment),Fyn kinase domain,-1.328
same,Fyn enrich. R1,Fyn kinase domain,0.4068
same,Fyn enrich. R3,Fyn kinase domain,0.5016
same,Fyn enrich. R4,Fyn kinase domain,0.6969
same,Hck mean of log2(enrichment),Hck kinase domain,0.4135
same,Hck enrich. R1,Hck kinase domain,0.473
same,Hck enrich. R3,Hck kinase domain,0.3667
same,Hck enrich. R4,Hck kinase domain,0.3337
same,c-Abl mean of log2(enrichment),c-Abl kinase domain [2],-1.694
same,c-Abl enrich. R1,c-Abl kinase domain [2]; pTyr-Var library,0.3586
same,c-Abl enrich. R3,c-Abl kinase domain [2]; pTyr-Var library,0.2586
same,c-Abl enrich. R4,c-Abl kinase domain [2]; pTyr-Var library,0.2717
same,Jak2 mean of log2(enrichment),Jak2,-1.234
same,Jak2 enrich. R1,Jak2,0.5584
same,Jak2 enrich. R3,Jak2,0.3848
same,AncSZ mean of log2(enrichment),AncSZ kinase domain,-0.7891
same,AncSZ enrich. R1,AncSZ kinase domain,0.6022
same,AncSZ enrich. R3,AncSZ kinase domain,0.4422
same,AncSZ enrich. R4,AncSZ kinase domain,0.5318
same,AncSZ enrich. R5,AncSZ kinase domain,0.777
same,Fer mean of log2(enrichment),Fer kinase domain,-1.39
same,Fer enrich. R1,Fer kinase domain,0.41
same,Fer enrich. R3,Fer kinase domain,0.4208
same,Fer enrich. R4,Fer kinase domain,0.3128
same,Fes mean of log2(enrichment),Fes,-1.191
same,mean of log2(reference),FGFR1 kinase domain,-1.437
same,mean of log2(reference),FGFR3 kinase domain,-1.231
same,mean of log2(reference),EPHB1 kinase domain,-2.084
same,mean of log2(reference),EPHB2 kinase domain,-1.13
same,mean of log2(reference),MERTK kinase domain,-1.316
same,ref. mean,"MERTK kinase domain; pTyr-Var library, reference peptide enrichment, mean of n = 4",0.4184
same,mean of log2(reference),c-Src SH2 domain,-1.119
same,mean of log2(reference),SHP2 C-SH2 domain,-0.8121
same,mean of log2(reference),Grb2 SH2 domain,-0.5728
LENSTYQFIHV [CRB1_Y760_R764H_YF],Screen,c-Src kinase domain [1]; [8],0.1019
same,Screen,"c-Abl kinase domain [2]; fig5-data2, sheet ""Abl"", Screen for the variant/reference peptide pair, pTyr-Var library",-1.13
same,Screen,Fer kinase domain; [9],0.6151
same,Screen,EPHB1 kinase domain,0.7891
same,Screen,EPHB2 kinase domain; [10],0.62
RGDCTYAPLLG [AR_Y269_M268T],Screen,c-Src kinase domain [1]; [8],0.1809
same,Screen,Fer kinase domain; [9],-1.638
same,Screen,EPHB1 kinase domain,0.2378
same,Screen,EPHB2 kinase domain; [10],0.1305
SPFMLYQFLKQ [RPAP3_Y567_D564Y_YF],Screen,c-Src kinase domain [1]; [6],-1.029
same,Screen,Fer kinase domain; [7],-1.212
same,Screen,EPHB1 kinase domain,2.24
same,Screen,EPHB2 kinase domain; [10],1.841
TTGLIYIGSHD [AASDH_Y870],c-Src mean of log2(enrichment),c-Src kinase domain [1],-1.294
same,c-Src enrich. R1,c-Src kinase domain [1],0.3921
same,c-Src enrich. R3,c-Src kinase domain [1],0.3853
same,c-Src enrich. R4,c-Src kinase domain [1],0.4379
same,Fyn mean of log2(enrichment),Fyn kinase domain,-1.48
same,Fyn enrich. R1,Fyn kinase domain,0.4689
same,Fyn enrich. R3,Fyn kinase domain,0.3674
same,Fyn enrich. R4,Fyn kinase domain,0.214
same,Hck mean of log2(enrichment),Hck kinase domain,0.4597
same,Hck enrich. R1,Hck kinase domain,0.6399
same,Hck enrich. R3,Hck kinase domain,0.4036
same,Hck enrich. R4,Hck kinase domain,0.2897
same,c-Abl mean of log2(enrichment),c-Abl kinase domain [2],-1.045
same,c-Abl enrich. R1,c-Abl kinase domain [2]; pTyr-Var library,0.5107
same,c-Abl enrich. R3,c-Abl kinase domain [2]; pTyr-Var library,0.4932
same,c-Abl enrich. R4,c-Abl kinase domain [2]; pTyr-Var library,0.3951
same,Jak2 mean of log2(enrichment),Jak2,-0.485
same,Jak2 enrich. R1,Jak2,0.7507
same,Jak2 enrich. R3,Jak2,0.724
same,AncSZ mean of log2(enrichment),AncSZ kinase domain,-0.4681
same,AncSZ enrich. R1,AncSZ kinase domain,0.7227
same,AncSZ enrich. R3,AncSZ kinase domain,0.6145
same,AncSZ enrich. R4,AncSZ kinase domain,0.7736
same,AncSZ enrich. R5,AncSZ kinase domain,0.7032
same,Fer mean of log2(enrichment),Fer kinase domain,-1.298
same,Fer enrich. R1,Fer kinase domain,0.3587
same,Fer enrich. R3,Fer kinase domain,0.5035
same,Fer enrich. R4,Fer kinase domain,0.5633
same,Fes mean of log2(enrichment),Fes,-0.4107
same,mean of log2(reference),FGFR1 kinase domain,-1.189
same,mean of log2(reference),FGFR3 kinase domain,-0.6492
same,mean of log2(reference),EPHB1 kinase domain,-0.5976
same,mean of log2(reference),EPHB2 kinase domain,-0.8783
same,mean of log2(reference),MERTK kinase domain,-1.687
same,mean of log2(reference),c-Src SH2 domain,-0.7916
same,mean of log2(reference),SHP2 C-SH2 domain,-0.7271
same,mean of log2(reference),Grb2 SH2 domain,0.04072
